Counter-ions that a name gives are not always drawn.
How the values were obtained:
hERG = hERG (Homo sapiens, UniProt Q12809); assay: Effects on hERG current (whole-cell clamping); conditions: human, HEK 293 cells that express hERG, pH 7.4, hERG inhibition rate (%) (1 μM), 1 μM; tail peak current; hERG-expressed HEK 293 cells
Description: Dimethylsulfoxide was used as a vehicle and hERG-expressed HEK 293 cells (Cytomyx) were used as test cells. Test cells were once cultured and subdivided and were stored under frozen condition in liquid nitrogen. In the study, thawed and subcultured cells having less than 30 of the passage number were used. Test cells were cultured in a carbon dioxide incubator BNP-110M (Tabai Espec Corp.) at 37±1° C., and 5.0±0.5% of carbon dioxide concentration. The component of culture medium was MEM (Minimum Essential Medium) supplemented with 10 vol % fetal bovine serum (non-activated), 1 mmol/L sodium pyruvate, 0.1 mmol/L non-essential amino acid, 100 U/mL penicillin with 100 μg/mL streptomycin. To select gene-expressing cells, 400 μg/mL G418 Sulphate (Invitrogen) was added to the culture medium. In the dishes for the measurement, the medium which not contain G418 Sulphate (Invitrogen) was used.
As to seeding of cells for measurement, subcultured cells which became confluent were treated with 0.25% trypsin-solution containing 1 mmol/L EDTA (Invitrogen) to remove from the plate, and seeded on sterilized collagen-coated cover glass (Iwaki, AGC Techno Glass Co., LTD). The medium was exchanged appropriately, including the day of measurement.
A perfusion method was applied to the experiment. Test cells were perfused (perfusion speed: approximately 4 mL/min) with an external solution containing specified concentrations of test compounds (component of external solution: 137 mmol/L of sodium chloride, 4 mmol/L of potassium chloride, 10 mmol/L of HEPES, 1.8 mmol/L of calcium chloride, 1 mmol/L of magnesium chloride and 10 mmol/L of glucose; adjusted to pH 7.4±0.1 with sodium hydroxide aqueous solution). […] When effects were observed, the perfusion was continued until the maximum response was observed. […] The data were obtained from one experiment or more and the cells which were incubated in a carbon dioxide incubator after seeding and attached to cover slips were used for the measurement.
A whole-cell clamping method was applied to the measurement. Test cells were perfused (perfusion speed: approximately 4 mL/min) with an external solution (component of external solution: 137 mmol/L of sodium chloride, 4 mmol/L of potassium chloride, 10 mmol/L of HEPES, 1.8 mmol/L of calcium chloride, 1 mmol/L of magnesium chloride and 10 mmol/L of glucose; adjusted to pH 7.4±0.1 with sodium hydroxide aqueous solution). A glass electrode with a resistance of 2 to 6 MΩ, filled with an internal solution (component: 130 mmol/L of potassium chloride, 1 mmol/L of magnesium chloride, 5 mmol/L of EGTA, 10 mmol/L of HEPES and 5 mmol/L of ATP adjusted to pH 7.2±0.1 with sodium hydroxide aqueous solution) was used. After rupturing cell membrane with glass electrode, the cell membrane voltage was held at −80 mV via a patch clamp software (pCLAMP9 [Axon CNS], Molecular Devices) using patch clamp amplifier (EPC8, HEKA). […] Test cells and the cell-attached cover glass were changed every treatment. Temperature of the fluid in a perfusion fluid tank was 24±2° C.
The obtained current was recorded on a computer via a patch clamp amplifier using patch clamp software. An evaluation item was a tail peak current.
A tail peak current was analyzed using analyzing software (Clampfit 9 [Axon CNS], MolecularDevices). Each 2 pulses of before and after perfusion of test compound for each concentration was analyzed, and a peak values of the tail current on the pulses were determined. The inhibition ratio was determined according to the following equation:

[1] = tested on: IL-17 production of mouse spleen cells stimulated by rm-IL-23; assay: Production of IL-17 induced when mouse spleen cells were stimulated by recombinant mouse interleukin-23 (rm-IL-23); format: cell-based; conditions: Mus musculus, 72 h, inhibition of IL-17 production, DBA/1J mouse spleen cells, rm-IL-23 1 nmol/L, ELISA
Description: Effect on Production of IL-17 Induced when Mouse Spleen Cells were Stimulated by Recombinant Mouse Interleukin-23 (rm-IL-23)
An RPMI1640 (Sigma-Aldrich) was used as a medium, to which penicillin G potassium (50 units/mL; Gibco), streptomycin (50 μg/mL; Gibco) and 2-mercaptoethanol (50 μmol/l; Sigma-Aldrich) were added, and then 10% of fetal calf serum (FCS; Cell Culture Technology) inactivated at 56° C. for 30 minutes was added and used in the Test. The test compound was dissolved in dimethylsulfoxide and diluted with 10% FCS-containing RPMI1640 medium to a desired concentration and used in the test. The spleens were aseptically taken out from 6-7 week-old male DBA/1J mice (Charles River Japan, Inc.) and a single cell suspension of spleen cells was prepared and hemolyzed by hypotonic treatment with a mixture of 0.83% aqueous solution of ammonium chloride and Tris-HCl buffer of pH 7.65 (9:1). A cell suspension prepared by 10% FCS-containing RPMI1640 medium was added to flat-bottomed 96 well microtestplate at 2×10^5 cells/well. Test compounds and rm-IL-23 (R&D systems) were diluted with a medium to 1 to 1,000 nmol/L, and 1 nmol/L of the final concentration respectively, which were added and cultured at 37° C., 5% carbon dioxide and 95% air for 72 hours. After completion of the culture, culture supernatant was sampled and an amount of IL-17 production was determined by ELISA method. After sampling the supernatant, WST-8 (Seikagaku Corporation) was added at 10 μl/well and cultured at 37° C., 5% carbon dioxide and 95% air for 4 hours. Then, absorbance (O.D.: Optical Density) at 450 nm was measured by a microplate reader and the value was adopted as an index of cell survivability. An inhibition rate (%) was calculated according to the following formula on the basis of an average of an amount of IL-17 production and a O.D. values of the well containing a test compound of each concentration.
Based on the dose-response curve obtained by plotting the inhibition rate in the longitudinal axis and concentration in the horizontal axis, the concentration of the compound which inhibits the level to 50% of the value of the control group (IC50; nmol/L) was determined by linear regression analysis. The results was shown in the next Table 1

hERG, sequence (Q12809 whole entry): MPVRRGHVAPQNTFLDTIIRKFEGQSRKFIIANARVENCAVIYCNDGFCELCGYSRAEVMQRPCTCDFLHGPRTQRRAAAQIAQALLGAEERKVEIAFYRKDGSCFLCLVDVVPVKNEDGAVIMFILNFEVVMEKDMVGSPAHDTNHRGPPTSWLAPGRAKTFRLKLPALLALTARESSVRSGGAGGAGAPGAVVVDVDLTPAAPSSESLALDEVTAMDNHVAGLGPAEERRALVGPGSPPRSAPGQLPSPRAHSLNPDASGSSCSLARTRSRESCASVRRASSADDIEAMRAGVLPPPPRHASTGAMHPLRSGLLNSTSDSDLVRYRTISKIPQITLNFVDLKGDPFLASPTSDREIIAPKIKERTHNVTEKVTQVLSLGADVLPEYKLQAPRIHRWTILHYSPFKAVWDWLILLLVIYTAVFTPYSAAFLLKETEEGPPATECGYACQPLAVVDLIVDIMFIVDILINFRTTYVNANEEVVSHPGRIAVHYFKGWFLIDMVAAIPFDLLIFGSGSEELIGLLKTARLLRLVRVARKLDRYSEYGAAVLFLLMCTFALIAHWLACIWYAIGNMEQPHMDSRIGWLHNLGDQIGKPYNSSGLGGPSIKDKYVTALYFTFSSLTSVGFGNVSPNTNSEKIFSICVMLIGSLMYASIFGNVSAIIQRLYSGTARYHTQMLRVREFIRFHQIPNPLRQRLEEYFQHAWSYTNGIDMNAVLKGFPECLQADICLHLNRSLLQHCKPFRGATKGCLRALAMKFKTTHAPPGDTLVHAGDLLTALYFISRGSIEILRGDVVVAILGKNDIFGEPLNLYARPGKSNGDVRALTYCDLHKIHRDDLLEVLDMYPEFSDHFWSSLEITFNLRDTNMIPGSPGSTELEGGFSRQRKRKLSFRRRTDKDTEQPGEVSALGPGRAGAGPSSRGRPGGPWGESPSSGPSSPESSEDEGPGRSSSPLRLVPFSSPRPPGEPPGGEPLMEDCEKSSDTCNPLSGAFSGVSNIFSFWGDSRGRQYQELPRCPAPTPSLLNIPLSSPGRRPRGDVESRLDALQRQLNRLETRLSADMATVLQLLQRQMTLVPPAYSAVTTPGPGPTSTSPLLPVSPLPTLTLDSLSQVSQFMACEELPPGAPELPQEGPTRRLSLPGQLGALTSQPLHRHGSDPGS

| SMILES | IC50 [1] | inhibition at 1 µM (hERG) |
| --- | --- | --- |
| Cc1c(C(=O)Nc2ccc([C@]3(C#N)CC[C@@H](N4CCC(O)C4)CC3)nc2)cnn1-c1ccc(C(F)(F)F)cn1 (some centres unmarked) [Example D13, N-{6-[r-1-Cyano-c-4-(3-hydroxypyrrolidin-1-yl)cyclohexyl]pyridin-3-yl}-5-methyl-1-[5-(trifluoromethyl)pyridin-2-yl]-1H-pyrazole-4-carboxamide] | 154 nM | 22% |
| CO[C@H]1CC[C@](C#N)(c2ccc(NC(=O)c3cnn(-c4ccc(C)cc4)c3C)cn2)CC1 [Example D18, N-{6-[r-1-Cyano-c-4-methoxycyclohexyl]pyridin-3-yl}-5-methyl-1-(4-methylphenyl)-1H-pyrazole-4-carboxamide] | 251 nM | 7.2% |
| Cc1cc(NC(=O)c2cnn(-c3ccc(C(F)(F)F)cn3)c2C)cnc1C1=CC[C@H](N2CCOCC2)CC1 [Example D21, (R)-5-Methyl-N-{5-methyl-6-[4-(morpholin-4-yl)cyclohex-1-en-1-yl]pyridin-3-yl}-1-[5-(trifluoromethyl)pyridin-2-yl]-1H-pyrazole-4-carboxamide] | 39.5 nM | 14.3% |
| Cc1cc(NC(=O)c2cnn(-c3ccc(C(F)(F)F)cn3)c2C)cnc1C1=CC[C@@H](N2CCOCC2)CC1 [Example D22, (S)-5-Methyl-N-{5-methyl-6-[4-(morpholin-4-yl)cyclohex-1-en-1-yl]pyridin-3-yl}-1-[5-(trifluoromethyl)pyridin-2-yl]-1H-pyrazole-4-carboxamide] | 36.2 nM | 31% |
| Cc1cc(NC(=O)c2cnn(-c3ccc(C(F)(F)F)cn3)c2C)cnc1C1=CCC(O)CC1 (centres unmarked) [Example D23, N-[6-(4-Hydroxycyclohex-1-en-1-yl)-5-methylpyridin-3-yl]-5-methyl-1-[5-(trifluoromethyl)-pyridin-2-yl]-1H-pyrazole-4-carboxamide] | 105 nM | 20.2% |
| Cc1cc(NC(=O)c2cnn(-c3ncc(C(F)(F)F)cc3F)c2C)cnc1C1=CCC(O)CC1 (centres unmarked) [Example D25, 1-[3-Fluoro-5-(trifluoromethyl)pyridin-2-yl]-5-methyl-N-[5-methyl-6-(4-hydroxycyclohex-1-en-1-yl)pyridin-3-yl]-1H-pyrazole-4-carboxamide] | 148 nM | 4.2% |
| Cc1c(C(=O)Nc2ccc(C3(C#N)CCC4(CC3)OCCO4)nc2)cnn1-c1ccc(Br)cn1 [Example D29] | 86.9 nM | 27.7% |
| Cc1c(C(=O)Nc2ccc(C3(C#N)CCC4(CC3)OCCO4)nc2)cnn1-c1ccc(C(F)(F)F)cn1 [Example D41] | 32.8 nM | 26.4% |
| Cc1c(C(=O)Nc2ccc([C@]3(C#N)CC[C@@H](N4CCOCC4)CC3)nc2)cnn1-c1ccc(C(C)(C)C)cc1 [Example D88] | 52.6 nM | 43% |
| Cc1c(C(=O)Nc2ccc([C@]3(C#N)CC[C@@H](N4CCOCC4)CC3)nc2)cnn1-c1ccc(C(C)(C)C)cn1 [Example D104] | 212 nM | 13.8% |
| Cc1ccc(-n2ccc(C(=O)Nc3ccc(C4(C#N)CCC5(CC4)OCCO5)nc3)c2)cc1C [Example D153] | 55.1 nM | 47.6% |
| Cc1c(C(=O)Nc2ccc(C3CCC4(CC3)OCCO4)nc2)cnn1-c1ccc(C(C)(C)C)cc1 [Example D165] | 44 nM | 8.9% |
| Cc1cc(NC(=O)c2cnn(-c3ncc(C(F)(F)F)cc3Cl)c2C)cnc1C1=CCC(N2CCOCC2)CC1 (centres unmarked) [Example D175] | 49.8 nM | 31.7% |
| Cc1cc(NC(=O)c2cnn(-c3ncc(C(F)(F)F)cc3C)c2C)cnc1C1=CCC(N2CCOCC2)CC1 (centres unmarked) [Example D188] | 86.3 nM | 40% |
| COc1cc(NC(=O)c2cnn(-c3ccc(C(F)(F)F)cn3)c2C)cnc1C1=CCC(N(C)C(=O)C(C)(C)C)CC1 (centres unmarked) [Example K69, N-(6-{4-[N-(2,2-Dimethylpropion-1-yl)-N-methylamino]cyclohex-1-en-1-yl}-5-methoxypyridin-3-yl)-5-methyl-1-[5-(trifluoromethyl)pyridin-2-yl]-1H-pyrazole-4-carboxamide] |  | 1.3% |

The next lines start with results.

| IC50 [1] | SMILES | inhibition at 1 µM (hERG) |
| --- | --- | --- |
| 78.9 nM | Cc1c(C(=O)Nc2ccc([C@]3(C#N)CC[C@@H](N4CCOCC4)CC3)nc2)cnn1-c1ccc(C(F)(F)F)cn1 [Example D1, N-{6-[r-1-Cyano-c-4-(morpholin-4-yl)cyclohexyl]pyridin-3-yl}-5-methyl-1-[5-(trifluoromethyl)pyridin-2-yl]-1H-pyrazole-4-carboxamide hydrochloride] | 22.6% |
| 119 nM | Cc1c(C(=O)Nc2ccc(C3=CCC(N4CCOCC4)CC3)nc2)cnn1-c1ccc(C2CC2)cn1 (centres unmarked) [Example D5, 1-(5-Cyclopropylpyridin-2-yl)-5-methyl-N-{6-[4-(morpholin-4-yl)cyclohex-1-en-1-yl]pyridin-3-yl}-1H-pyrazole-4-carboxamide mesylate] | 15.1% |
| 63.3 nM | Cc1c(C(=O)Nc2ccc([C@H]3CC[C@H](N4CCOCC4)CC3)nc2)cnn1-c1ccc(C(F)(F)F)cn1 [Example D6, trans-5-Methyl-N-{6-[4-(morpholin-4-yl)cyclohexyl]pyridin-3-yl}-1-[5-(trifluoromethyl)-pyridin-2-yl]-1H-pyrazole-4-carboxamide mesylate] | 24.5% |
| 208 nM | Cc1c(C(=O)Nc2ccc([C@]3(C#N)CC[C@@H](N4CCOCC4)CC3)nc2)cnn1-c1ncc(Cl)cc1Cl [Example D7, N-{6-[r-1-Cyano-c-4-(morpholin-4-yl)cyclohexyl]pyridin-3-yl}-1-(3,5-dichloropyridin-2-yl)-5-methyl-1H-pyrazole-4-carboxamide hydrochloric acid salt] | 24.7% |
| 162 nM | Cc1c(C(=O)Nc2ccc([C@]3(C#N)CC[C@@H](N4CCOCC4)CC3)nc2)cnn1-c1ncc(C(F)(F)F)cc1F [Example D14, N-{6-[r-1-Cyano-c-4-(morpholin-4-yl)cyclohexyl]pyridin-3-yl}-1-[3-fluoro-5-(trifluoromethyl)pyridin-2-yl]-5-methyl-1H-pyrazole-4-carboxamide] | 6.4% |
| 92 nM | Cc1cc(NC(=O)c2cnn(-c3ncc(Cl)cc3F)c2C)cnc1C1=CCC(N2CCOCC2)CC1 (centres unmarked) [Example D19, 1-[5-Chloro-3-fluoropyridin-2-yl]-5-methyl-N-{5-methyl-6-[4-(morpholin-4-yl)cyclohex-1-en-1-yl]pyridin-3-yl}-1H-pyrazole-4-carboxamide] | 35.1% |
| 40.3 nM | Cc1cc(NC(=O)c2cnn(-c3ncc(C(F)(F)F)cc3F)c2C)cnc1C1=CCC(N2CCOCC2)CC1 (centres unmarked) [Example D24, 1-[3-Fluoro-5-(trifluoromethyl)pyridin-2-yl]-5-methyl-N-{5-methyl-6-[4-(morpholin-4-yl)cyclohex-1-en-1-yl]pyridin-3-yl}-1H-pyrazole-4-carboxamide mesylate] | 20.9% |
| 125 nM | Cc1c(C(=O)Nc2ccc([C@]3(C#N)CC[C@@H](N4CCOCC4)CC3)nc2)cnn1-c1ccc(C(C)C)cn1 [Example D26, N-{6-[r-1-Cyano-c-4-(morpholin-4-yl)cyclohexyl]pyridin-3-yl}-1-(5-isopropylpyridin-2-yl)-5-methyl-1H-pyrazole-4-carboxamide mesylate] | 26.4% |
| 169 nM | Cc1c(C(=O)Nc2ccc([C@]3(O)CC[C@@H](N4CCOCC4)CC3)nc2)cnn1-c1ccc(C(F)(F)F)cc1 [Example D53] | 25.1% |
| 207 nM | Cc1c(C(=O)Nc2ccc([C@H]3CC[C@H](N4CCOCC4)CC3)nc2)cnn1-c1ccc(C(F)F)cn1 [Example D63] | 40.4% |
| 160 nM | Cc1c(C(=O)Nc2ccc([C@H]3CC[C@H](N4CCOCC4)CC3)nc2)cnn1-c1ccc(C2CC2)cn1 [Example D64] | 27.9% |
| 139 nM | Cc1c(C(=O)Nc2ccc([C@H]3CC[C@H](N4CCOCC4)CC3)nc2)cnn1-c1ncc(C2CC2)cc1F [Example D65] | 5.5% |
| 62.5 nM | Cc1c(C(=O)Nc2ccc(C3=CCC(N4CCOCC4)CC3)nc2)cnn1-c1ccc(C(F)(F)F)cc1 (centres unmarked) [Example D71] | 16.5% |
| 183 nM | Cc1c(C(=O)Nc2ccc([C@]3(C#N)CC[C@@H](N4CCOCC4)CC3)nc2)cnn1-c1ccc(F)cc1 [Example D89] | 44.4% |
| 66 nM | Cc1cc(NC(=O)c2cnn(-c3ncc(C4CC4)cc3F)c2C)cnc1C1=CCC(N2CCOCC2)CC1 (centres unmarked) [Example D177] | 13% |
